Measured values taken from US20080206194A1, “Method for the treatment of breast cancer” (priority 2007, published 2008).
Entries after “also recorded” stand apart in the source; their conditions may differ.

What was measured:
mammary tumors = assay: Mammary tumor formation after carcinogenesis in Pax8PPARγ transgenic mice; type: in vivo; settings: MMTV-Pax8PPARγ transgenic mice, ER(+) carcinomas; 200 mg/kg subcutaneously once a week for three months after carcinogen administration
Description: FIG. 2 is a bar graph showing the total number of mammary tumors appearing in transgenic MMTV-Pax8PPARγ FVB mice treated with either vehicle or ERα antagonist fulvestrant, 200 mg/kg subcutaneously once per week for three months after carcinogen administration.
Mammary carcinogenesis (see, e.g., Yin et al., Characterization of medroxyprogesterone and DMBA-induced multilineage mammary tumors by gene expression. Mol. Carcinogenesis 42:pp. 42-50, (2005)) was induced in Pax8PPARγ transgenic mice, which mammary carcinomas are ER(+) and were treated once a week for three months with the ER antagonist fulvestrant at a dose of 200 mg/kg administered subcutaneously in an oil emulsion. […] Each experimental group consisted of 6 mice. FIG. 2 indicates the total number of mammary tumors appearing three months after carcinogen administration.

ERα = ERα detection by immunochemical staining of DMBA/progestin-induced mammary carcinomas; type: in vivo; settings: wild-type FVB mice, medroxyprogesterone/DMBA-induced carcinogenesis, 40 mg/kg subcutaneously, weekly, for 12 weeks, rabbit polyclonal antibody
Description: FIG. 1 illustrates ER detection by immunochemical staining with a rabbit polyclonal antibody of dimethylbenz(α)anthracene (DMBA)/progestin-induced mammary carcinomas of wild-type FVB mice, transgenic MMTV-Pax8PPARγ FVB mice and GW9662-treated mice, with 40 mg/kg, subcutaneously, weekly, for 12 weeks.
Mammary carcinogenesis was induced in female wild-type FVB/N or MMTV-Pax8PPARγ transgenic mice purchased from Charles River Laboratories (Wilmington, Mass.) by subcutaneous injection of 600 mg/kg medroxyprogesterone acetate suspension (150 mg/ml, Sicor Pharmaceuticals Inc., Irvine, Calif.), followed one week later by four weekly oral doses of 1 mg dimethylbenz(a)anthracene (DMBA) dissolved in cottonseed oil (10 mg/ml). Following the last dose of DMBA, mice were injected subcutaneously once a week with 40 mg/kg GW9662 dissolved in cottonseed oil (10 mg/ml). […]
Mammary carcinomas from transgenic MMTV-Pax8PPARγ FVB mice stained intensely for ERα, particularly in the basal layer of cells, as compared to low ERα staining in ductal epithelium from wild-type FVB mice (see FIG. 1). […] ERα was detected by immunochemical staining with a rabbit polyclonal antibody (Santa Cruz Biotechnology, sc-542) diluted 1:1000.

## C[C@]12CC[C@@H]3c4ccc(O)cc4C[C@@H](CCCCCCCCC[S+]([O-])CCCC(F)(F)C(F)(F)F)[C@H]3[C@@H]1CC[C@@H]2O (some centres unmarked) [fulvestrant]
Mammary tumors
  tumor formation (total number of mammary tumors): completely inhibited tumor formation

## O=C(Nc1ccccc1)c1cc([N+](=O)[O-])ccc1Cl [GW9662, 2-Chloro-5-nitrobenzanilide]
ERα
  ERα expression (immunochemical staining) in mammary carcinomas: substantial ERα staining; also recorded: pattern of ERα expression similar to MMTV-Pax8PPARγ mice
